± gives the expanded uncertainty stated by the source. One block for each compound: values may come before it.
Experiment: molar enthalpy of vaporization or sublimation
Settings: Liquid

SMILES: CCCCOC(=O)c1ccccc1C(=O)OCCCC [dibutyl phthalate]
molar enthalpy (393 K): 20.1 ± 0.382 kcal/mol

SMILES: CCn1cc[n+](C)c1.O=S(=O)([N-]S(=O)(=O)C(F)(F)F)C(F)(F)F
molar enthalpy (525 K): 26.4 ± 0.717 kcal/mol

SMILES: CCCCCCCCCCCCCCCCCC(=O)OC [methyl octadecanoate]
molar enthalpy (353 K): 21.6 ± 0.239 kcal/mol

Other lines, results leading:

molar enthalpy (373 K): 22 ± 0.335 kcal/mol | molar enthalpy (383.5 K, Transpiration): 22.3 ± 0.335 kcal/mol
SMILES: CCCCCCCCCCCCCCCCCC(=O)OCC [ethyl octadecanoate]

molar enthalpy (333.5 K, Transpiration): 17.9 ± 0.191 kcal/mol | molar enthalpy (353 K): 17.8 ± 0.382 kcal/mol
SMILES: CCCCCCCCCCCCCCCC [hexadecane]

Source: the NIST ThermoML archive (doi:10.1016/j.tca.2012.03.018)
